# Measured values from the supplement of paper PMC9663587.
# Tests used:
# YKL-5-124 = compound: C=CC(=O)Nc1ccc(C(=O)Nc2[nH]nc3c2CN(C(=O)N[C@H](CN(C)C)c2ccccc2)C3(C)C)cc1 [YKL-5-124]; experiment: increase in dead-cell fraction, 72 h; higher = more death;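 note: breast cancer cell lines in 384-well plates, stained with Hoechst plus LIVE/DEAD far red dye and imaged, cells above an LDR intensity threshold counted dead, Hoechst-negative corpses included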
# BSJ-03-123 = compound: CC(=O)c1c(C)c2cnc(Nc3ccc(N4CCN(CCOCCOCCOCCNC(=O)COc5cccc6c5C(=O)N(C5CCC(=O)NC5=O)C6=O)CC4)cn3)nc2n(C2CCCC2)c1=O [BSJ-03-123]; experiment: as above
# [1] = compound: CC(=O)c1c(C)c2cnc(Nc3ccc(N4CCNCC4)cn3)nc2n(C2CCCC2)c1=O; experiment: as above
# [2] = compound: CCN1CCN(Cc2ccc(Nc3ncc(F)c(-c4cc(F)c5nc(C)n(C(C)C)c5c4)n3)nc2)CC1; experiment: as above
# Neratinib/HKI272 [3] = compound: T1, CCOc1cc2ncc(C#N)c(Nc3ccc(OCc4ccccn4)c(Cl)c3)c2cc1NC(=O)/C=C/CN(C)C [Neratinib/HKI272]; experiment: as above
# [4] = compound: CCc1cnn2c(NCc3ccc[n+]([O-])c3)cc(N3CCCC[C@H]3CCO)nc12; experiment: as above
# LEE011/Ribociclib = compound: CN(C)C(=O)c1cc2cnc(Nc3ccc(N4CCNCC4)cn3)nc2n1C1CCCC1 [LEE011/Ribociclib]; experiment: as above
# THZ531 = compound: CN(C)C/C=C/C(=O)Nc1ccc(C(=O)N2CCC[C@@H](Nc3ncc(Cl)c(-c4c[nH]c5ccccc45)n3)C2)cc1 [THZ531]; experiment: as above
# THZ1 [5] = compound: T2, CN(C)C/C=C/C(=O)Nc1ccc(C(=O)Nc2cccc(Nc3ncc(Cl)c(-c4c[nH]c5ccccc45)n3)c2)cc1 [THZ1]; experiment: as above
# Flavopiridol = compound: CN1CC[C@H](c2c(O)cc(O)c3c(=O)cc(-c4ccccc4Cl)oc23)[C@H](O)C1 [Flavopiridol]; experiment: as above
# Neratinib/HKI272 [6] = compound: T1, Neratinib/HKI272; experiment: GR value, 72 h; higher = faster growth (1 = untreated, <0 = killing);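 note: breast cancer and non-malignant breast epithelial lines, nine half-log doses, viable cells counted by Hoechst and LIVE/DEAD dye imaging versus time-zero plates and DMSO controls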
# THZ1 [7] = compound: T2, THZ1; experiment: as above
cell line,measurement,setting,value
CAL120,increase in dead-cell fraction,YKL-5-124; 0.001 µM,0.0168
same,increase in dead-cell fraction,YKL-5-124; 0.003162 µM,0.0283
same,increase in dead-cell fraction,YKL-5-124; 0.01 µM,0.0348
same,increase in dead-cell fraction,YKL-5-124; 0.03162 µM,0.0304
same,increase in dead-cell fraction,YKL-5-124; 0.1 µM,0.0343
same,increase in dead-cell fraction,YKL-5-124; 0.3162 µM,0.0427
same,increase in dead-cell fraction,YKL-5-124; 1 µM,0.0333
same,increase in dead-cell fraction,YKL-5-124; 3.162 µM,0.0461
same,increase in dead-cell fraction,YKL-5-124; 10 µM,0.0476
same,increase in dead-cell fraction,BSJ-03-123; 0.001 µM,-0.0001
same,increase in dead-cell fraction,BSJ-03-123; 0.003162 µM,0.0019
same,increase in dead-cell fraction,BSJ-03-123; 0.01 µM,-0.0014
same,increase in dead-cell fraction,BSJ-03-123; 0.03162 µM,-0.0007
same,increase in dead-cell fraction,BSJ-03-123; 0.1 µM,-0.0013
same,increase in dead-cell fraction,BSJ-03-123; 0.3162 µM,0.0033
same,increase in dead-cell fraction,BSJ-03-123; 1 µM,0.004
same,increase in dead-cell fraction,BSJ-03-123; 3.162 µM,0.0059
same,increase in dead-cell fraction,BSJ-03-123; 10 µM,0.0482
same,increase in dead-cell fraction,[1]; 0.0003162 µM,-0.0011
same,increase in dead-cell fraction,[1]; 0.001 µM,-0.0036
same,increase in dead-cell fraction,[1]; 0.003162 µM,0.0022
same,increase in dead-cell fraction,[1]; 0.01 µM,-0.0072
same,increase in dead-cell fraction,[1]; 0.03162 µM,0.0004
same,increase in dead-cell fraction,[1]; 0.1 µM,0.0047
same,increase in dead-cell fraction,[1]; 0.3162 µM,0.0049
same,increase in dead-cell fraction,[1]; 1 µM,0.0051
same,increase in dead-cell fraction,[1]; 3.162 µM,0.0096
same,increase in dead-cell fraction,[2]; 0.001 µM,-0.0028
same,increase in dead-cell fraction,[2]; 0.003162 µM,-0.0021
same,increase in dead-cell fraction,[2]; 0.01 µM,0.0053
same,increase in dead-cell fraction,[2]; 0.03162 µM,0.0134
same,increase in dead-cell fraction,[2]; 0.1 µM,0.0398
same,increase in dead-cell fraction,[2]; 0.3162 µM,0.0603
same,increase in dead-cell fraction,[2]; 1 µM,0.146
same,increase in dead-cell fraction,[2]; 3.162 µM,0.248
same,increase in dead-cell fraction,[2]; 10 µM,0.249
same,increase in dead-cell fraction,Neratinib/HKI272 [3]; 0.0003162 µM,-0.0012
same,increase in dead-cell fraction,Neratinib/HKI272 [3]; 0.001 µM,-0.0046
same,increase in dead-cell fraction,Neratinib/HKI272 [3]; 0.003162 µM,-0.0039
same,increase in dead-cell fraction,Neratinib/HKI272 [3]; 0.01 µM,-0.0045
same,increase in dead-cell fraction,Neratinib/HKI272 [3]; 0.03162 µM,0.0031
same,increase in dead-cell fraction,Neratinib/HKI272 [3]; 0.1 µM,-0.0024
same,increase in dead-cell fraction,Neratinib/HKI272 [3]; 0.3162 µM,0.0027
same,increase in dead-cell fraction,Neratinib/HKI272 [3]; 1 µM,0.0247
same,increase in dead-cell fraction,Neratinib/HKI272 [3]; 3.162 µM,0.571
same,increase in dead-cell fraction,[4]; 0.0001 µM,-0.0093
same,increase in dead-cell fraction,[4]; 0.0003162 µM,-0.0043
same,increase in dead-cell fraction,[4]; 0.001 µM,-0.0016
same,increase in dead-cell fraction,[4]; 0.003162 µM,0.0101
same,increase in dead-cell fraction,[4]; 0.01 µM,0.132
same,increase in dead-cell fraction,[4]; 0.03162 µM,0.241
same,increase in dead-cell fraction,[4]; 0.1 µM,0.233
same,increase in dead-cell fraction,[4]; 0.3162 µM,0.25
same,increase in dead-cell fraction,[4]; 1 µM,0.208
same,increase in dead-cell fraction,LEE011/Ribociclib; 0.001 µM,-0.0051
same,increase in dead-cell fraction,LEE011/Ribociclib; 0.003162 µM,-0.0023
same,increase in dead-cell fraction,LEE011/Ribociclib; 0.01 µM,0.0009
same,increase in dead-cell fraction,LEE011/Ribociclib; 0.03162 µM,-0.0029
same,increase in dead-cell fraction,LEE011/Ribociclib; 0.1 µM,0
same,increase in dead-cell fraction,LEE011/Ribociclib; 0.3162 µM,0.001
same,increase in dead-cell fraction,LEE011/Ribociclib; 1 µM,-0.0006
same,increase in dead-cell fraction,LEE011/Ribociclib; 3.162 µM,0.0024
same,increase in dead-cell fraction,LEE011/Ribociclib; 10 µM,0.0041
same,increase in dead-cell fraction,THZ531; 0.0001 µM,0.0032
same,increase in dead-cell fraction,THZ531; 0.0003162 µM,-0.0012
same,increase in dead-cell fraction,THZ531; 0.001 µM,-0.0004
same,increase in dead-cell fraction,THZ531; 0.003162 µM,-0.0009
same,increase in dead-cell fraction,THZ531; 0.01 µM,-0.0022
same,increase in dead-cell fraction,THZ531; 0.03162 µM,0.0046
same,increase in dead-cell fraction,THZ531; 0.1 µM,0.0275
same,increase in dead-cell fraction,THZ531; 0.3162 µM,0.0465
same,increase in dead-cell fraction,THZ531; 1 µM,0.0403
same,increase in dead-cell fraction,THZ1 [5]; 0.0001 µM,-0.0036
same,increase in dead-cell fraction,THZ1 [5]; 0.0003162 µM,0.0008
same,increase in dead-cell fraction,THZ1 [5]; 0.001 µM,-0.0008
same,increase in dead-cell fraction,THZ1 [5]; 0.003162 µM,0.0033
same,increase in dead-cell fraction,THZ1 [5]; 0.01 µM,0.0048
same,increase in dead-cell fraction,THZ1 [5]; 0.03162 µM,0.0266
same,increase in dead-cell fraction,THZ1 [5]; 0.1 µM,0.0311
same,increase in dead-cell fraction,THZ1 [5]; 0.3162 µM,0.0265
same,increase in dead-cell fraction,THZ1 [5]; 1 µM,0.0708
same,increase in dead-cell fraction,Flavopiridol; 0.0001 µM,-0.0013
same,increase in dead-cell fraction,Flavopiridol; 0.0003162 µM,0.002
same,increase in dead-cell fraction,Flavopiridol; 0.001 µM,0.0027
same,increase in dead-cell fraction,Flavopiridol; 0.003162 µM,-0.0004
same,increase in dead-cell fraction,Flavopiridol; 0.01 µM,-0.0008
same,increase in dead-cell fraction,Flavopiridol; 0.03162 µM,0.0016
same,increase in dead-cell fraction,Flavopiridol; 0.1 µM,0.0004
same,increase in dead-cell fraction,Flavopiridol; 0.3162 µM,0.0194
same,increase in dead-cell fraction,Flavopiridol; 1 µM,0.0425
same,GR value,Neratinib/HKI272 [6]; 0.0003162 µM,0.996 GR
same,GR value,Neratinib/HKI272 [6]; 0.001 µM,1.03 GR
same,GR value,Neratinib/HKI272 [6]; 0.003162 µM,0.97 GR
same,GR value,Neratinib/HKI272 [6]; 0.01 µM,0.973 GR
same,GR value,Neratinib/HKI272 [6]; 0.03162 µM,0.999 GR
same,GR value,Neratinib/HKI272 [6]; 0.1 µM,0.876 GR
same,GR value,Neratinib/HKI272 [6]; 0.3162 µM,0.618 GR
same,GR value,Neratinib/HKI272 [6]; 1 µM,0.355 GR
same,GR value,Neratinib/HKI272 [6]; 3.162 µM,-0.262 GR
same,GR value,THZ1 [7]; 0.0001 µM,1.02 GR
same,GR value,THZ1 [7]; 0.0003162 µM,0.971 GR
same,GR value,THZ1 [7]; 0.001 µM,0.979 GR
same,GR value,THZ1 [7]; 0.003162 µM,0.92 GR
same,GR value,THZ1 [7]; 0.01 µM,0.938 GR
same,GR value,THZ1 [7]; 0.03162 µM,0.656 GR
same,GR value,THZ1 [7]; 0.1 µM,0.324 GR
same,GR value,THZ1 [7]; 0.3162 µM,0.154 GR
same,GR value,THZ1 [7]; 1 µM,-0.159 GR
